The test concerns the target NSP14 (Severe acute respiratory syndrome coronavirus 2, UniProt P0DTD1). The test can be described thus: NSP14 MTase inhibition assay at 37° C. (MTase-Glo SAH detection). The test is classed as biochemical, SARS-CoV-2. The conditions noted are these: 0.3 nM NSP14, 2.5 μM SAM, 2.5 μM GpppA RNA, read-out: Nsp14 Mtase Inh. IC50.

The structures appear in SMILES notation. Like-named read-outs stand apart in the source and are kept apart here.

Regarding `Cc1c(S(=O)(=O)c2ccncc2)cc(C(=O)NCc2cccc3cnn(C)c23)n1C` [A.27], the IC50 (45 min at 37° C.) is 102 nM.

As for `Cc1c(S(=O)(=O)c2ccc3[nH]ncc3c2)cc(C(=O)NCc2c[nH]c(=O)c3ccccc23)n1C` [B.21], under “37° C.”, the IC50 was 0.54 nM.

`Cc1c(S(=O)(=O)c2ccc3[nH]ncc3c2)cc(C(=O)NCc2c(F)ccc3ncn(C4CC4)c23)n1C` [B.18]: the IC50 (37° C.) was less than 0.15 nM.

On to `Cc1c(S(=O)(=O)c2cnc3[nH]ncc3c2)cc(C(=O)NCc2cccc3cnn(C)c23)n1C` [B.30], for which the IC50 (37° C.) came to 4.6 nM.

Consider `Cc1c(S(=O)(=O)c2ccc3[nH]nc(F)c3c2)cc(C(=O)NCc2cccc3cnn(C)c23)n1C` [B.12], for which, for the setting “37° C.”, the IC50 is 0.63 nM.

Consider `Cc1c(S(=O)(=O)c2ccc3[nH]ncc3c2)cc(C(=O)NCc2ccn(C3CC3)n2)n1C` [B.168], for which the half-inhibitory concentration (IC50) (37° C.) was 172 nM.

For `Cc1c(S(=O)(=O)c2ccc3[nH]ncc3c2)cc(C(=O)NCc2c(F)ccc(OCc3ccc(C(=O)O)cc3)c2F)n1C` [B.123], the IC50 (37° C.) is less than 0.15 nM.

Consider `Cc1c(S(=O)(=O)c2ccc3[nH]ncc3n2)cc(C(=O)NCc2cccc3cnn(C4CC4)c23)n1C` [B.50], for which the IC50 (37° C.) was determined as 51 nM.

With `Cc1c(S(=O)(=O)c2ccc3[nH]ncc3c2)cc(C(=O)NCc2c(F)cccc2OCCN(C)C)n1C` [B.78], the IC50 (37° C.) was 2 nM.

`Cc1c(S(=O)(=O)c2ccc3[nH]ncc3c2)cc(C(=O)NCc2c(F)cc(F)c3cnn(C)c23)n1C` [B.69]: the IC50 (37° C.) was less than 0.15 nM.

Regarding `Cc1c(S(=O)(=O)c2ccc3[nH]ncc3c2)cc(C(=O)N[C@@H]2CCN(c3ccc(C#N)cn3)C2)n1C` [A.72], where the note is “45 min at 37° C.”, the half-inhibitory concentration (IC50) stood at 0.29 nM.

`Cc1c(S(=O)(=O)c2ccc3[nH]ncc3c2)cc(C(=O)N[C@@H]2CCN(c3ncc(C#N)cn3)C2)n1C` [A.49]: the half-inhibitory concentration (IC50) (45 min at 37° C.) turned out to be 0.63 nM.

In the case of `Cc1cc(C)n(C)c(=O)c1CNC(=O)c1cc(S(=O)(=O)c2ccc3[nH]ncc3c2)c(C)n1C` [B.164], for the setting “37° C.”, the half-maximal inhibitory concentration (IC50) worked out at 0.85 nM.

Turning to `Cc1c(S(=O)(=O)c2ccc3[nH]ncc3c2)cc(C(=O)NCc2c(F)ccc3c2N(C)C(=O)C3(C)C)n1C` [B.119], the IC50 (37° C.) amounted to 0.21 nM.

As to `Cc1c(S(=O)(=O)c2ccc3[nH]ncc3c2)cc(C(=O)NCc2cccc3c2ccc(=O)n3C)n1C` [B.33], the IC50 (37° C.) was 0.35 nM.

`Cc1c(S(=O)(=O)c2ccc3[nH]ncc3c2)cc(C(=O)NC2CN(c3ncc(F)cn3)C[C@@H]2F)n1C` (some centres unmarked) [A.46]: the concentration for half-maximal inhibition (IC50) (45 min at 37° C.) was found to be 0.77 nM.

For the compound `Cc1c(S(=O)(=O)c2ccc3[nH]ncc3c2)cc(C(=O)N[C@@H]2CCN(c3cccc(C#N)c3)C2)n1C` [A.84], under “45 min at 37° C.”, the IC50 was less than 0.15 nM.

In the case of `Cc1c(S(=O)(=O)c2ccc3[nH]ncc3c2)cc(C(=O)N[C@@H]2CCN(c3ccc(C(F)(F)F)cn3)C2)n1C` [A.65], the IC50 (45 min at 37° C.) was found to be 1 nM.

Consider `Cc1cc(CNC(=O)c2cc(S(=O)(=O)c3ccc4[nH]ncc4c3)c(C)n2C)n(C)n1` [B.147], for which the 50% inhibitory concentration (IC50) (37° C.) stood at 145 nM.

As to `Cc1c(S(=O)(=O)c2ccc3[nH]nc(F)c3c2)cc(C(=O)NC(c2ccccc2)c2ccccc2)n1C` [B.126], under “37° C.”, the IC50 amounted to 108 nM.

Regarding `Cc1c(S(=O)(=O)c2ccc3[nH]ncc3c2)cc(C(=O)N[C@@H]2CCN(c3ccn4nccc4c3)C2)n1C` [A.60], the IC50 (45 min at 37° C.) was 0.28 nM.

Regarding `Cc1c(S(=O)(=O)c2ccc3[nH]ncc3c2)cc(C(=O)NCc2nccn2C)n1C` [B.131], the IC50 (37° C.) was 79 nM.

Take `Cc1c(S(=O)(=O)c2ccc(F)cc2)cc(C(=O)NCc2cccc3cnn(C)c23)n1C` [A.17]: the IC50 (45 min at 37° C.) was determined as 16 nM.

For the compound `Cc1c(S(=O)(=NCC2CC2)c2ccc3[nH]ncc3c2)cc(C(=O)N[C@@H]2CCN(c3ncc(F)cn3)C2)n1C` (some centres unmarked) [A.69], under “45 min at 37° C.”, the half-inhibitory concentration (IC50) came out at 8.7 nM.

`Cc1c(S(=O)(=O)c2ccc3[nH]ncc3c2)cc(C(=O)N[C@@H]2CCN(c3cccn4nccc34)C2)n1C` [A.59]: where the note is “45 min at 37° C.”, the IC50 worked out at 0.18 nM.

For `Cc1c(S(=O)(=O)c2ccc3[nH]ncc3c2)cc(C(=O)NCc2c(F)ccn(C)c2=O)n1C` [B.181], the concentration for half-maximal inhibition (IC50) (37° C.) came out at 0.23 nM.

As to `Cc1c(S(=O)(=O)c2ccc3[nH]nc(F)c3c2)cc(C(=O)NCc2c(F)ccc3nnn(C4CC4)c23)n1C` [B.82], the IC50 (37° C.) is less than 0.15 nM.

For `Cc1c(S(=O)(=O)c2ccc3[nH]ncc3c2)cc(C(=O)NCc2c(F)cccc2Cl)n1C` [B.85], the concentration for half-maximal inhibition (IC50) (37° C.) is 0.2 nM.

On to `Cc1cc(S(=O)(=O)c2cc(C(=O)NCc3c(F)ccc4occc34)n(C)c2C)cc2cn[nH]c12` [A.1, N-[(5-fluorobenzofuran-4-yl)methyl]-1,5-dimethyl-4-[(7-methyl-1H-indazol-5-yl)sulfonyl]pyrrole-2-carboxamide], for which the IC50 (45 min at 37° C.) amounted to 0.2 nM.

In the case of `Cc1c(S(=O)(=O)c2ccc3[nH]ncc3c2)cc(C(=O)N[C@@H]2CCN(c3ccnc(C(F)(F)F)n3)C2)n1C` [A.92], where the note is “45 min at 37° C.”, the concentration for half-maximal inhibition (IC50) was less than 0.15 nM.

As for `Cc1c(S(=O)(=O)c2ccc3[nH]ncc3c2)cc(C(=O)N[C@@H]2CCN(c3cccc(C(F)(F)F)n3)C2)n1C` [A.38], under “45 min at 37° C.”, the IC50 was 0.8 nM.

On to `Cc1c(S(=O)(=O)c2ccc3[nH]ncc3c2)cc(C(=O)NCc2ncccc2C(F)(F)F)n1C` [B.83], for which the IC50 (37° C.) is 5.3 nM.

With `Cc1c(S(=O)(=O)c2ccc3[nH]ncc3c2)cc(C(=O)N[C@@H]2CCN(c3ccncn3)C2)n1C` [A.93], the IC50 (45 min at 37° C.) came to 0.2 nM.

Turning to `Cc1c(S(=O)(=O)c2cccc(C#N)c2)cc(C(=O)NCc2cccc3ncn(C4CC4)c23)n1C` [B.3], the IC50 (37° C.) is 5.3 nM.

Turning to `Cc1c(S(=O)(=O)c2ccc3c(cnn3C)c2)cc(C(=O)NCc2c(F)ccc3occc23)n1C` [A.19], the half-maximal inhibitory concentration (IC50) (45 min at 37° C.) was 21 nM.

In the case of `Cc1c(S(=O)(=O)c2ccc3c(=O)[nH]ccc3c2)cc(C(=O)NCc2c(F)ccc3cnn(C4CC4)c23)n1C` [B.136], the IC50 (37° C.) is less than 0.15 nM.

For the compound `Cc1c(S(=O)(=O)c2ccc3[nH]ncc3c2)cc(C(=O)N[C@H]2C[C@@H](Nc3ncc(F)cn3)C2)n1C` [A.97], the concentration for half-maximal inhibition (IC50) (45 min at 37° C.) was 13 nM.

For the compound `Cc1c(S(=O)(=O)c2ccc3[nH]ncc3c2)cc(C(=O)N[C@@H]2CCN(c3ncccn3)C2)n1C` [A.64], the IC50 (45 min at 37° C.) amounted to 0.78 nM.

Consider `Cc1c(S(=O)(=O)c2ccc3[nH]ncc3c2)cc(C(=O)N[C@H](C)c2c(F)cccc2F)n1C` (single isomer, unassigned) [B.64], for which the half-maximal inhibitory concentration (IC50) (37° C.) amounted to 4 nM.

In the case of `Cc1c(S(=O)(=O)c2ccc3[nH]ncc3c2)cc(C(=O)NCc2ccnn2CC(F)F)n1C` [B.162], the half-maximal inhibitory concentration (IC50) (37° C.) was 2.2 nM.

On to `Cc1c(S(=O)(=O)c2ccc3[nH]ncc3c2)cc(C(=O)N[C@H]2CCc3c(F)ccc(F)c32)n1C` (single isomer, unassigned) [B.140], for which the IC50 (37° C.) came to 0.31 nM.

With `Cc1c(S(=O)(=O)c2ccc3[nH]ncc3c2)cc(C(=O)N[C@H]2CCN(c3ncc(F)cn3)C2)n1C` [A.47], where the note is “45 min at 37° C.”, the IC50 stood at 2.2 nM.

With `Cc1c(S(=O)(=O)c2ccc3[nH]ncc3c2)cc(C(=O)N[C@@H]2CCN(c3cc(C(F)(F)F)ccn3)C2)n1C` [A.74], the half-maximal inhibitory concentration (IC50) (45 min at 37° C.) was determined as 0.57 nM.

For the compound `Cc1cc(S(=O)(=O)c2cc(C(=O)NCc3c(F)ccc4ncn(C5CC5)c34)n(C)c2C)cc2cn[nH]c12` [B.27], the IC50 (37° C.) was found to be 0.21 nM.

As for `Cc1c(S(=O)(=O)c2ccc3[nH]ncc3c2)cc(C(=O)NCc2ccc(=O)n(C)n2)n1C` [B.133], the IC50 (37° C.) turned out to be 7.6 nM.

`Cc1c(S(=O)(=O)c2cc(F)c3[nH]ncc3c2)cc(C(=O)N[C@@H](C)c2cccc3cnn(C4CC4)c23)n1C` (single isomer, unassigned) [B.87]: the concentration for half-maximal inhibition (IC50) (37° C.) was determined as 0.82 nM.

As for `Cc1c(S(=O)(=O)c2ccc3[nH]ncc3c2)cc(C(=O)N[C@@H]2CCN(c3ccc(Cl)cn3)C2)n1C` [A.44], the IC50 (45 min at 37° C.) was less than 0.15 nM.

The term IC50 denotes the concentration that gives 50% inhibition.

Values taken from patent publication US20260226034A1 (The Rockefeller University, priority 2023, published 2026).
